Values joined by “and” are separate entries in the source; they are usually repeats but may differ in a detail not shown here. Equal values may be shown once.
Experiments:
S180 ascites = assay: Anti-tumor evaluation against S180 ascites in mice (% increase in life span, survivors); type: in vivo, female CFW Swiss mice; settings: for Survivors: day of evaluation; for Anti-tumor activity (in words): 50% ILS criterion; for % ILS against criterion for anti-tumor activity: failed to meet the 50% ILS criterion
Method: The above prepared compounds were evaluated against S180 ascites in female CFW Swiss mice. The mice were weighed (average weight: 20 g), placed into cages (six mice to a cage) and on day zero the mice were inoculated with 0.2 ml of a freshly prepared saline suspension (0.15 M NaCl) containing 1×10^7 tumor cells/ml or a total of 2×10^6 cells. This inoculum was freshly prepared using "transfer" mice which had been injected with tumor cells the previous week; it was obtained via the following steps: (1) the removal of cells from the peritoneal cavity of the sacrificed transfer mouse, (2) alternate centrifugation and washing operations (2-3 times with cold saline) to remove blood and other components, and (3) dilution of the volume of the packed cell with saline (1:3). A final centrifugation was carried out at 1000 RPM over a two minute period. A cell count was made on a 2,000-fold dilution of this 1:3 suspension by means of a Coulter Counter. A final dilution to 1×10^7 cells/ml was made based on the average count.
On day 1, solutions of the test compounds were prepared and each mouse in a set of six were injected with the same test compound at the same dosage. The doses were based on the average weight of the animals (cage weight). Also, beginning on day 1 two controls were employed containing six mice per control:
(1) Normal Control: This consisted solely of the carrier or diluent used in combination with the test compound; and
(2) Positive Control: This consisted solely of the known anti-tumor agent cis-[Pt(NH3)2 Cl2 ] (Cisplatin) in saline (8 mg/kg) to test the response of the biological system.
The effectiveness of a test compound was measured in terms of the % increase in life span (%ILS) of the test mice relative to the Normal Control (Calculated from the day of tumor inoculation, i.e., day zero). To standardize the test data and permit intercomparisons, the day of evaluation was arbitrarily taken as that day corresponding to twice the mean life span (or average day of death) of the control. This established a practical upper limit of 100% on the %ILS attainable. For calculation purposes the survivors on the day of evaluation were considered to have died on that day. The %ILS was calculated as follows: [formula] ILS values in excess of 50% were interpreted as being indicative of anti-tumor activity, whereas, values in excess of 75% indicated excellent activity.
The products of Examples 1, 4, 10 and 11 were administered in a freshly prepared 1% sodium bicarbonate solution; the remaining test compounds were administered as slurries in 0.5% "Klucel" (hydroxypropylcellulose).

Sarcoma 180 tumors [1] = assay: Therapeutic index (LD50/ED90), implanted Sarcoma 180 tumors; type: in vivo, Swiss white mice; design: ED90: unit not given here; settings: for Maximum % ILS (Dosage): S 180 ascites, 20 mg/kg; for ED90: dose giving 50% increase in life span for 90% of the animals, determined graphically
Solubility = type: physicochemical
Sarcoma 180 tumors [2] = settings: comparison value; cited from earlier work

Compound	% ILS (S180 ascites; S 180 ascites, 10 mg/kg)	Survivors (S180 ascites; S 180 ascites, 10 mg/kg)	% ILS (S180 ascites; S 180 ascites, 20 mg/kg)	Survivors (S180 ascites; S 180 ascites, 20 mg/kg)	% ILS (S180 ascites; S 180 ascites, 40 mg/kg)	Survivors (S180 ascites; S 180 ascites, 40 mg/kg)	% ILS (S180 ascites; S 180 ascites, 80 mg/kg)	Survivors (S180 ascites; S 180 ascites, 80 mg/kg)	% ILS (S180 ascites; S 180 ascites, 160 mg/kg)	Survivors (S180 ascites; S 180 ascites, 160 mg/kg)	% ILS (S180 ascites; S 180 ascites, 320 mg/kg)	Survivors (S180 ascites; S 180 ascites, 320 mg/kg)	Maximum % ILS (Dosage) (Sarcoma 180 tumors [1])	ED90 (Sarcoma 180 tumors [1])	Anti-tumor activity (in words) (S180 ascites; S 180 ascites)	% ILS against criterion for anti-tumor activity (S180 ascites)	solubility in 1% sodium bicarbonate solution (Solubility)	also measured
[Cl][Au]([Cl])[Cl].c1ccncc1 [Example 7, trichloro(pyridine)gold(III)]	45%	3 of 6	71%	2 of 6	66%	3 of 6	-6%	2 of 6	-94%	0 of 6	-94%	0 of 6	71%	35				
[Cl][Au-]([Cl])([Cl])[n+]1cc[nH]c1 [Example 8, trichloro(imidazole)gold(III)]	-7%	0 of 6	1%	1 of 6	-16%	0 of 6	37%	1 of 6	37%	2 of 6					considered to be inactive	< 50%		% ILS (S180 ascites; S 180 ascites, 5 mg/kg): 5%; Survivors (S180 ascites; S 180 ascites, 5 mg/kg): 0 of 6; Anti-tumor activity (in words) (S180 ascites; S 180 ascites, listed as trichloro(imidazole)gold(III)): inactive in bringing about a regression of S 180 ascites at all doses tested
Cn1cc[n+]([Au-]([Br])([Br])[Br])c1 [Example 9, Tribromo(N-Methylimidazole)Gold(III)]	5%	0 of 6	76%	4 of 6	66%	3 of 6	-1%	1 of 6	-94%	0 of 6	-94%	0 of 6	76%	42				Therapeutic Index (Sarcoma 180 tumors [1]; LD50/ED90): 2.0
O=C(O)c1ccc[n+]([Au-]([Br])([Br])[Br])c1 [Example 10]	-23%	0 of 6	26%	0 of 6	64%	2 of 6	49%	0 of 6	-19%	0 of 6	-95%	0 of 6					12.8 mg/mL	
O=C(O)Cc1ccc[n+]([Au-]([Br])([Br])[Br])c1 [Example 11, tribromo(3-pyridylacetic acid)gold(III)]	-16%	0 of 6	20%	0 of 6	10%	0 of 6	31%	1 of 6	-21%	0 of 6	-92%	0 of 6			considered to be inactive	< 50%	12.8 mg/mL	Anti-tumor activity (in words) (S180 ascites; S 180 ascites, listed as tribromo(3-pyridylacetic acid)gold(III)): inactive as an anti-tumor agent
cis-[Pt(NH3)2 Cl2 ] [Cisplatin, reference compound]																		Positive Control Survivors (S180 ascites; S 180 ascites, Cisplatin in saline, 8 mg/kg, one value per test series, listed as Positive Control): 0 of 6 and 4 of 6 and 6 of 6 and 1 of 6; Therapeutic index attributed to commercially available Cisplatin (Sarcoma 180 tumors [2]): 2.2-2.5
